Legend:
[1] = test system: ADRP expression in adipocytes; conditions: cited from earlier work
[2] = test system: ADRP overexpressing cells (MCF7-C4); test: proliferation assay, ADRP overexpressing MCF-7 cells; assay type: cell-based, human; conditions: estradiol 10^−9 M, insulin 10 microgramsg/ml, EGF 25 ng/ml in medium
Method: The vector used to over-express ADRP in MCF-7 cells is the ADRP-pcDNA3 vector described in Gao and Serrero, 1999. The G418 resistance gene was used as selectable marker. MCF-7 cells were transfected with the ADRP-pcDNA3 plasmid, using the lipofectamine method. Specifically, MCF-7 cells (WT) were plated onto 60-mm dish at the concentration of 2×10^5 cell per plate in 5% fetal bovine serum (FBS) in DMEM/F12 (1:1 mixture of Dulbecco's modified Eagle's medium and Ham' nutrient F12 medium) overnight before transfection. Cells were washed once with serum-free DMEM/F12 (without antibiotic). The lipofectamine method was used for the transfection. Specifically, 2 μg mouse ADRP pcDNA3 construct was used. Transfection was carried on according to manufacturer's recommendations, with 15 μl of lipofectamine and 5 hours of incubation. After transfection, the medium was replaced with 5% FBS DMEM/F12 and the cells were incubated overnight. G418 at the concentration of 800 μg/ml was added the day after for selection. Cells were selected with this medium for 3 weeks. Six clones were isolated and subjected to RT-PCR to determine the existence of the transfection construct. For proliferation assay, the cells were seeded at a density of 5×10^4 cells in phenol red-free α-MEM (PFME) supplemented with 5% of charcoal extracted fetal bovine serum (CHX-FBS) in 6-well culture plates (Costar). Cells were treated with 1 nM 17β-estradiol alone. Control cells were treated with vehicle alone (0.01% DMSO). Cell numbers were counted by hemacytometer every two days. Medium was changed at day 4. Each time point was performed in triplicate. Specifically, the medium contained estradiol (E2 at 10^−9 M), insulin (10 microgramsg/ml) and epidermal growth factor (EGF at 25 ng/ml).

[3] = test system: EV MCF-7 cells; test: proliferation assay, EV MCF-7 control cells; assay type: cell-based, human; conditions: estradiol 10^−9 M, insulin 10 microgramsg/ml, EGF 25 ng/ml in medium
Method: For proliferation assay, the cells were seeded at a density of 5×10^4 cells in phenol red-free α-MEM (PFME) supplemented with 5% of charcoal extracted fetal bovine serum (CHX-FBS) in 6-well culture plates (Costar). Cells were treated with 1 nM 17β-estradiol alone. Control cells were treated with vehicle alone (0.01% DMSO). Cell numbers were counted by hemacytometer every two days. Medium was changed at day 4. Each time point was performed in triplicate. Specifically, the medium contained estradiol (E2 at 10^−9 M), insulin (10 microgramsg/ml) and epidermal growth factor (EGF at 25 ng/ml).

[4] = test system: ADRP expression in MCF-7 cells; test: ADRP expression in MCF-7 cells (RT-PCR); assay type: cell-based, human; conditions: for increase of ADRP level over the endogenous level: treatment of cells, depends on length of treatment
From the text: Ciglitazone is known to bind and activate the nuclear receptor PPAR gamma, which has been shown in MCF-7 to stimulate expression of beta casein (Mueller et al., 1998).
It is known that estradiol plays a dual role in mammary epithelial cells as a stimulator of proliferation and also as a differentiation factor at different times of the developmental stages of mammary gland development (Kumar et al, 2000).
A specific siRNA against human ADRP mRNA (hADRP-siRNA) was designed using the sequence between +225 to +244 of human ADRP as a target. A control siRNA was designed using a portion of the green fluorescence protein gene. Twenty-one-oligonucleotide RNA for hADRP (rArUrU rGrCrA rGrUrU rGrCrC rArArU rArCrC rUTT and rArGrG rUrArU rUrGrG rCrArA rCrUrG rCrArA rUTT) with 3′dTdT overhangs, and for GFP (rGrGrC rUrArC rGrUrC rCrArG rGrArG rCrGrC rArCrC and rUrGrC rGrCrU rCrCrU rGrGrA rCrGrU rArGrC rCrUrU) were synthesized (Integrated DNA Technologies, Inc., Coralville, Iowa). Transfection of siRNA duplex was performed in MCF-7 cells using LipofectAMINE 2000 reagents as described by the manufacturer (Invitrogen, Carlsbad, Calif.). MCF-7 EV grown to 50% confluency in 6-well plates were transfected with 100 pmole of siRNA per well in serum free-DMEM/F12. After 5 h, the medium was replaced with DMEM/F12 containing 5% FBS. Control MCF-7 cells were treated with GFP siRNA. The cells were then treated with 50 μM (50 micromolars) ciglitazone. After 48 h of incubation, RNA samples were collected by Trizol method to measure human ADRP expression and beta casein expression by RT-PCR as described above.

COc1ccc2c(c1)c(CC(=O)O)c(C)n2C(=O)c1ccc(Cl)cc1 [indomethacin]
ADRP expression in adipocytes [1]: stimulated

epidermal growth factor: growth factor known to stimulate the proliferation of mammary epithelial cells
proliferation of ADRP overexpressing cells [2]: no effect
proliferation of EV MCF-7 cells (control) [3]: stimulated the proliferation

C[C@]12CC[C@@H]3c4ccc(O)cc4CC[C@H]3[C@@H]1CC[C@@H]2O [estradiol, 17β-estradiol, reference compound]
proliferation of ADRP overexpressing cells [2]: no effect
ADRP expression ([4]; MCF-7 cells, FIG. 7): stimulates ADRP expression
increase of ADRP level over the endogenous level [4]: 2-3 fold
proliferation of EV MCF-7 cells (control) [3]: stimulated the proliferation

CC(C)Cc1ccc(C(C)C(=O)O)cc1 (centres unmarked) [ibuprofen]
ADRP expression in adipocytes [1]: stimulated

insulin: hormone known to stimulate the proliferation of mammary epithelial cells
proliferation of ADRP overexpressing cells [2]: no effect
proliferation of EV MCF-7 cells (control) [3]: stimulated the proliferation

CC1(COc2ccc(CC3SC(=O)NC3=O)cc2)CCCCC1 (centres unmarked) [ciglitazone]
increase of ADRP level over the endogenous level [4]: over 10 fold
